Laboratory results from patent US12691070B2, “Cationic lipids and preparation method thereof” (RiboX Therapeutics HK Limited, priority 2023, dated 2026).

How the values were obtained:
Hep G2 cells [1] = experiment: In vitro toxicity (CellTiter-Glo cell viability), Hep G2; type: cell-based;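 further: percent of untreated cells luminescence signal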
Procedure, shortened: (§1)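 Viability after a 72 h incubation with 1 μg/mL RNA-LNP formulations was assessed luminometrically using CellTiter-Glo.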

BALB/C mice [2] = experiment: Local tolerance determination by footpad injection; type: in vivo; settings: cirRNA (SEQ ID NO: 1) LNP, 0.175 mg*kg-1 subcutaneous into the footpad, 24 hours post minus prior
Procedure: 6-8 week old, female BALB/C mice were injected with 0.175 mg*kg-1 RNA LNPs by subcutaneous injection into the footpad. Prior to, and 24 hours post injections, injected footpad thickness was determined by a caliper.

RAW 264.7 cells [3] = experiment: In vitro expression of firefly-luciferase, RAW 264.7; type: cell-based
Procedure, shortened: (§2)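 Cells were transfected with firefly-luciferase-encoding RNA-LNPs at 100 ng/mL. After 72 hours they were washed and lysed, and luciferase activity in the lysates was read by luminometry.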

BALB/C mice [4] = experiment: In vivo expression, whole-body luminescence (IVIS)
Procedure: 6-8 week old, female BALB/C mice were injected with 0.05 mg*kg-1 of RNA-LNPs encoding for firefly-luciferase by intravenous injection. At 6 hours post injection, animals were intraperitoneally injected with 15 mg/ml of Luciferin substrate and whole-body luminescence was determined by a bioluminescent in vivo imaging system (IVIS).

RAW 264.7 cells [5] = experiment: In vitro toxicity (CellTiter-Glo cell viability), RAW 264.7; type: cell-based;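 further: percent of untreated cells luminescence signal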
Procedure, shortened: as §1

[6] = LNP zeta potential (Zetasizer); type: physicochemical
Procedure, shortened: (§3)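 Ribogreen fluorescence with and without Triton X-100 gave encapsulation as 100% − (intact/lysed) signal; DLS size, PDI and zeta potential measured on a Zetasizer. Particles: 50:10:38.5:1.5 lipid mix, luciferase circRNA or mRNA, lipid:nucleotide 15 or 6, microfluidic assembly at pH 4.5, PBS-dialyzed.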

[7] = LNP size and polydispersity index (PDI) by dynamic light scattering; type: physicochemical; settings: for Size: in nm (unit assumed)
Procedure, shortened: as §3

[8] = RNA encapsulation efficacy by Quant-IT Ribogreen kit; type: physicochemical; settings: for Encapsulation Efficiency %: LNP with cirRNA (SEQ ID NO: 1); for Encapsulation Efficiency: LNP with mRNA (SEQ ID NO: 2)
Procedure, shortened: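 LNPs of ionizable lipid/DSPC/cholesterol/DMG-PEG 2000 (50:10:38.5:1.5) made by microfluidic mixing of luciferase circRNA or mRNA in pH 4.5 acetate with lipids in ethanol (3:1, 12 ml/min), ionizable lipid:nucleotide 15 or 6, then dialyzed against PBS. Size, PDI (DLS) and zeta potential on Zetasizer; encapsulation by Ribogreen ± Triton X-100.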

Hep G2 cells [9] = experiment: In vitro expression of firefly-luciferase, Hep G2; type: cell-based
Procedure, shortened: as §2

[10] = test system: Alanine Aminotransferase (ALT); experiment: Liver enzyme elevation in serum, ALT; type: in vivo; settings: cirRNA (SEQ ID NO: 1) LNPs, BALB/C mice, intravenous 0.5 MPK
Procedure: (§4) 6-8 week old, female BALB/C mice were injected with 0.5 mg*kg-1 of RNA LNPs by intravenous injection. At 2 and 24 hours post injection, animals were bled and sera concentrations of Alanine Aminotransferase (ALT) and Aspartate Aminotransferase (AST) were determined by a blood chemistry analyzer.

MCP-I = MCP-I cytokine elevation in serum; type: in vivo; settings: cirRNA (SEQ ID NO: 1) LNPs, mice
Procedure: 6-8 week old, female BALB/C mice were injected with 0.5 mg*kg-1 of RNA LNPs by intravenous injection. At 2 and 24 hours post injection, animals were bled and sera concentrations of MCP-I were determined by an immunoassay (Luminex).

[11] = test system: Aspartate Aminotransferase (AST); experiment: Liver enzyme elevation in serum, AST; type: in vivo; settings: cirRNA (SEQ ID NO: 1) LNPs, BALB/C mice, intravenous 0.5 MPK
Procedure: as §4

[12] = cirRNA (SEQ ID NO: 1) LNPs, Hep G2 cells
[13] = mRNA (SEQ ID NO: 2) LNP, 1 μg/mL, 72 hours post transfection
[14] = cirRNA (SEQ ID NO: 1) LNPs, firefly-luciferase luminescence, RAW 264.7 cells
[15] = mRNA (SEQ ID NO: 2) LNP, 100 ng/mL, 72 hours post transfection, luciferase activity
[16] = cirRNA (SEQ ID NO: 1) LNPs, BALB/C mice
[17] = mRNA (SEQ ID NO: 2) LNP, 0.05 mg*kg-1 intravenous, 6 hours post injection
[18] = cirRNA (SEQ ID NO: 1) LNPs, RAW 264.7 cells
[19] = cirRNA (SEQ ID NO: 1) LNPs, firefly-luciferase luminescence, Hep G2 cells

| SMILES | In vitro Viability HepG2 (Hep G2 cells [1]; [12]) | In vitro Viability HepG2 (Hep G2 cells [1]; [13]) | Footpad Thickness (24 h−0 h, mm) (BALB/C mice [2]) | In vitro Expression RAW (RAW 264.7 cells [3]; [14]) | In vitro Expression RAW (RAW 264.7 cells [3]; [15]) | In vivo Expression (Whole Body) (BALB/C mice [4]; [16]) | In vivo Expression (Whole Body) (BALB/C mice [4]; [17]) | In vitro Viability RAW (RAW 264.7 cells [5]; [18]) | In vitro Viability RAW (RAW 264.7 cells [5]; [13]) | Zeta (mV) ([6]; LNP with cirRNA (SEQ ID NO: 1)) | Zeta (mV) ([6]; LNP with mRNA (SEQ ID NO: 2)) | PDI ([7]; LNP with cirRNA (SEQ ID NO: 1)) | Size ([7]; LNP with cirRNA (SEQ ID NO: 1)) | PDI ([7]; LNP with mRNA (SEQ ID NO: 2)) | Size ([7]; LNP with mRNA (SEQ ID NO: 2)) | Encapsulation Efficiency % [8] | Encapsulation Efficiency [8] | In vitro Expression HepG2 (Hep G2 cells [9]; [19]) | In vitro Expression HepG2 (Hep G2 cells [9]; [15]) | ALT in Sera (IU/L) 2 hours After 0.5 MPK Injection [10] | further results |
| --- | --- | --- | --- | --- | --- | --- | --- | --- | --- | --- | --- | --- | --- | --- | --- | --- | --- | --- | --- | --- | --- |
| CCCCCCCCC(CCCCCC)C(=O)OCCCCCCCCN(CCCCCCCCOC(=O)C(CCCCCC)CCCCCCCC)CCCOC(=O)NCc1ncc[nH]1 (centres unmarked) [Lipid 375] | 100% | 100% | 0.27 mm | 7.06E+05 | 2.13E+05 | 3.46E+08 | 8.41E+08 | 90% | 78% | −1.253 mV | −4.713 mV | 0.2011 | 92.54 | 0.008186 | 75.13 | 89% | 88.53% | 1.10E+06 | 4.36E+05 | 174.67 IU/L | ALT in Sera (IU/L) 24 hours After 0.5 MPK Injection [10]: 120.33 IU/L; MCP-I in Sera 2 hours After 0.5 MPK Injection (MCP-I): 2740.67 pg/mL; MCP-I in Sera 24 hours After 0.5 MPK Injection (MCP-I): 396.29 pg/mL; AST in Sera (IU/L) 2 hours After 0.5 MPK Injection [11]: 292.00 IU/L; AST in Sera (IU/L) 24 hours After 0.5 MPK Injection [11]: 251.67 IU/L |
| CCCCCCCCC(CCCCCC)C(=O)OCCCCCCCCN(CCCCCCCCOC(=O)C(CCCCCC)CCCCCCCC)CCCOC(=O)NCCCN(CC)CC (centres unmarked) [Lipid 376] | 48% | 53% | 0.89 mm | 1.00E+06 | 8.33E+04 | 1.16E+08 | 1.56E+09 | 87% | 100% | 9.074 mV | 5.722 mV | 0.1398 | 102 | 0.07745 | 87.9 | 97% | 90.28% | 4.84E+06 | 5.32E+05 | 117.33 IU/L | ALT in Sera (IU/L) 24 hours After 0.5 MPK Injection [10]: 141.33 IU/L; MCP-I in Sera 2 hours After 0.5 MPK Injection (MCP-I): 6397.67 pg/mL; MCP-I in Sera 24 hours After 0.5 MPK Injection (MCP-I): 561.62 pg/mL; AST in Sera (IU/L) 2 hours After 0.5 MPK Injection [11]: 434.67 IU/L; AST in Sera (IU/L) 24 hours After 0.5 MPK Injection [11]: 293.67 IU/L |
